Results on seven compounds are retold here after patent US20250296959A1, “B7-H3 TARGETING PEPTIDES AND CONSTRUCTS THEREOF” (Mariana Oncology Inc., priority 2024, published 2025).

Read-outs that look alike come from different tables or passages of the source. Starred links: 1 amine or outer side, 2 acyl side, 3 side chain; linkers in the order of their positions; H or OH if unused. Positions of bridges follow the written chain, without caps; N, C: chain ends. Non-standard residues stand in square brackets, D forms with d. Residues, ends and D or L forms follow the SMILES beside them. Groups on a side chain read outwards from the residue. *: point of attachment. Ala(piperidin-4-yl) = O=C([C@H](CC1CCN([*:3])CC1)N[*:1])[*:2]; Phe(3-CH2NH2) = O=C([C@H](Cc1cccc(CN[*:3])c1)N[*:1])[*:2]; DOTA = O=C(O)CN1CCN(CC(=O)O)CCN(CC(=O)*)CCN(CC(=O)O)CC1; Trp(5-F) = N[C@@H](Cc1c[nH]c2ccc(F)cc12)C(=O)O; Ala(4-THP) = N[C@@H](CC1CCOCC1)C(=O)O; Val(3-OH) = CC(C)(O)[C@H](N)C(=O)O; aThr = C[C@H](O)[C@H](N)C(=O)O; Chg = N[C@H](C(=O)O)C1CCCCC1; PEG4 = NCCOCCOCCOCCOCCC(=O)O; Tle = CC(C)(C)[C@H](N)C(=O)O; hLeu = CC(C)CC[C@H](N)C(=O)O; Sar = CNCC(=O)O Some results are limits rather than exact numbers.

Assay [1] relates to Calu-6 cell line. Put plainly: Net internalization of [177Lu]Lu-labeled peptide in Calu-6 cells. It is filed as cell-based, Human. The conditions noted are these: 1 hour, 37° C., glycine pH 2.5 acid wash. Put shortly: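 Calu-6 cells, human non-engineered lung cancer expressing B7-H3, resuspended in 1% PBSA at 5 million cells/mL and incubated with the 177Lu-labeled conjugate (labeled at 80 °C, pH ~5, RP-HPLC checked). Gamma counting of the bound fraction, then of the pellet after two glycine pH 2.5 acid strips and NaOH lysis, gives internalized activity.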

In assay [2] the test system is Calu-6 cell line. Put plainly: Cell associated (bound) fraction of [177Lu]Lu-labeled peptide in Calu-6 cells. The format is cell-based, Human. The conditions noted are these: 1 hour, 37° C. Put shortly: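 Detached B7-H3-expressing human lung cancer cells at 5 million/mL were exposed for 1 hour at 37 °C to 0.8 μCi of the 177Lu-labelled peptide, which was formulated in 1% PBSA after labelling at 80 °C, pH ~5. Supernatant and two cold washes counted as unbound, and resuspended cells gamma-counted as the cell-associated fraction.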

For another assay, the target named is T1, human 4lg B7-H3 (Homo sapiens, UniProt Q5ZPR3).
T1 sequence (Q5ZPR3 29-534): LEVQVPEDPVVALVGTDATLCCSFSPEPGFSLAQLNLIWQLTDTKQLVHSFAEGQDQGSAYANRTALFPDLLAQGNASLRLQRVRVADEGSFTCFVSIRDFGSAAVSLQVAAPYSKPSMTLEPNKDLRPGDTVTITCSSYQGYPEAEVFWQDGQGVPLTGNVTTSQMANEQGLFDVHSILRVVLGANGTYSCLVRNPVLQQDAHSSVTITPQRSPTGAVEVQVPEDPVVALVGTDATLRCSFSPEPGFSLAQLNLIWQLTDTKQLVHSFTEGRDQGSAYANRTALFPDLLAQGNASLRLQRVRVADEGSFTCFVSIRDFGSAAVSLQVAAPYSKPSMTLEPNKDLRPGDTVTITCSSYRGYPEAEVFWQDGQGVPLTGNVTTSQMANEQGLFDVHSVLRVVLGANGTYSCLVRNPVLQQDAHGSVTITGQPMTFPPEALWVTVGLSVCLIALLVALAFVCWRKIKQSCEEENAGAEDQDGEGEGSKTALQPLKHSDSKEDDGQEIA
Put plainly: Affinity determination by surface plasmon resonance (SPR) to 4Ig B7-H3. The following applies: 4Ig B7-H3.

The mark [3] stands for this setting: read-out: SPR KD—37° C., 37° C. flow cell temperature.
The mark [4] stands for this setting: read-out: SPR KD—25° C., 25° C. flow cell temperature.

The term Kd denotes the free concentration of one partner at which half of the binding sites on the other are occupied at equilibrium, for simple one-to-one binding. With `CC(=O)N[C@@H](CCC(C)C)C(=O)N[C@@H](Cc1ccc(O)cc1)C(=O)N[C@H]1CSSC[C@@H](C(=O)N[C@@H](Cc2c[nH]c3ccc(F)cc23)C(=O)N[C@@H](Cc2ccccc2)C(=O)N[C@H](C(N)=O)[C@@H](C)O)NC(=O)[C@H](Cc2ccc(O)cc2)NC(=O)[C@H](C(C)C)NC(=O)[C@H](CC(=O)O)NC(=O)[C@H](Cc2cccc(CNC(=O)CN3CCN(CC(=O)O)CCN(CC(=O)O)CCN(CC(=O)O)CC3)c2)NC(=O)[C@H](CCCCN)NC(=O)CNC(=O)[C@H](C(C)C)NC1=O` [compound 182, Ac-hLeu-Y-C-V-G-K-MAF(DOTA)-D-V-Y-C-5FW-F-Thr-CONH2] (Ac-[hLeu]YCVGK[Phe(3-CH2NH2)](DOTA)DVYC[Trp(5-F)]FT-NH2; disulfide 3-11), the “% net internalization” value in the assay on Calu-6 cell line [1] was “C (%>50)”. Besides, the “% cell associated fraction” value in the assay on Calu-6 cell line [2] was “C (%>50)”. The Kd at human 4lg B7-H3 (SPR KD—25° C., 25° C. flow cell temperature) is less than 1 nM.
For `CC(=O)N[C@@H](CCC(C)C)C(=O)N[C@@H](Cc1ccc(O)cc1)C(=O)N[C@H]1CSSC[C@@H](C(=O)N[C@@H](Cc2c[nH]c3ccc(F)cc23)C(=O)N[C@@H](Cc2ccccc2)C(=O)N[C@H](C(=O)N[C@H](CCCCNC(=O)[C@@H](CCC(=O)O)NC(=O)CN2CCN(CC(=O)O)CCN(CC(=O)O)CCN(CC(=O)O)CC2)C(=O)O)C(C)(C)O)NC(=O)[C@H](Cc2ccc(O)cc2)NC(=O)[C@H](C(C)C)NC(=O)[C@H](CC(=O)O)NC(=O)[C@H](CC2CCOCC2)NC(=O)[C@H](CC2CCNCC2)NC(=O)CNC(=O)[C@H](C(C)(C)C)NC1=O` [compound 429, Ac-hLeu-Y-C-Tbg-G-PipAla-ThpA-D-V-Y-C-5FW-F-hydroxyVal-dLys(dGlu-DOTA)-COOH] (Ac-[hLeu]YC[Tle]G[Ala(piperidin-4-yl)][Ala(4-THP)]DVYC[Trp(5-F)]F[Val(3-OH)][dK]([dE-DOTA])-OH; disulfide 3-11), the “% net internalization” value in the assay on Calu-6 cell line [1] is reported as “A (%≤25)”. Besides, the “% cell associated fraction” value in the assay with Calu-6 cell line [2] was “B (25<%≤50)”. Further, at human 4lg B7-H3 (setting [3]), the Kd is less than 1 nM.
Regarding `CC(=O)N[C@@H](CCC(C)C)C(=O)N[C@@H](Cc1ccc(O)cc1)C(=O)N[C@H]1CSSC[C@@H](C(=O)N[C@@H](Cc2c[nH]c3ccc(F)cc23)C(=O)N[C@@H](Cc2ccccc2)C(=O)N[C@H](C(=O)N[C@H](CCCCNC(=O)CN2CCN(CC(=O)O)CCN(CC(=O)O)CCN(CC(=O)O)CC2)C(N)=O)[C@@H](C)O)NC(=O)[C@H](Cc2ccc(O)cc2)NC(=O)[C@H](C2CCCCC2)NC(=O)[C@H](CC(=O)O)NC(=O)[C@H](Cc2ccc(O)cc2)NC(=O)[C@H](CCCCN)NC(=O)CNC(=O)[C@H](C(C)C)NC1=O` [compound 215, Ac-hLeu-Y-C-V-G-K-Y-D-ChG-Y-C-5FW-F-Thr-dLys(DOTA)-CONH2] (Ac-[hLeu]YCVGKYD[Chg]YC[Trp(5-F)]FT[dK](DOTA)-NH2; disulfide 3-11), the “% net internalization” value in the assay on Calu-6 cell line [1] is given as “A (%≤25)”. Further, the “% cell associated fraction” value in the assay on Calu-6 cell line [2] is reported as “C (%>50)”. Moreover, on human 4lg B7-H3 (setting [4]), the Kd is less than 1 nM.
Turning to `CC(=O)N[C@@H](CCC(C)C)C(=O)N[C@@H](Cc1ccc(O)cc1)C(=O)N[C@H]1CSSC[C@@H](C(=O)N[C@@H](Cc2c[nH]c3ccc(F)cc23)C(=O)N[C@@H](Cc2ccccc2)C(=O)N[C@H](C(=O)N[C@H](CCCCNC(=O)CN2CCN(CC(=O)O)CCN(CC(=O)O)CCN(CC(=O)O)CC2)C(=O)O)C(C)(C)O)NC(=O)[C@H](Cc2ccc(O)cc2)NC(=O)[C@H](C(C)C)NC(=O)[C@H](CC(=O)O)NC(=O)[C@H](CC2CCOCC2)NC(=O)[C@H](CCCCN)NC(=O)CNC(=O)[C@H](C(C)(C)C)NC1=O` [compound 303, Ac-hLeu-Y-C-Tbg-G-K-ThpA-D-V-Y-C-5FW-F-hydroxyVal-dLys(DOTA)-COOH] (Ac-[hLeu]YC[Tle]GK[Ala(4-THP)]DVYC[Trp(5-F)]F[Val(3-OH)][dK](DOTA)-OH; disulfide 3-11), in the assay on Calu-6 cell line [1], the “% net internalization” value is “B (25<%≤50)”. The “% cell associated fraction” value in the assay with Calu-6 cell line [2] is “C (%>50)”. The Kd on human 4lg B7-H3 (setting [4]) and on human 4lg B7-H3 (setting [3]) was less than 1 nM in each case.
For `CC(=O)N[C@@H](CCC(C)C)C(=O)N[C@@H](Cc1ccc(O)cc1)C(=O)N[C@H]1CSSC[C@@H](C(=O)N[C@@H](Cc2c[nH]c3ccc(F)cc23)C(=O)N[C@@H](Cc2ccccc2)C(=O)N[C@H](C(=O)N[C@H](C)C(N)=O)C(C)(C)O)NC(=O)[C@H](Cc2ccc(O)cc2)NC(=O)[C@H](C(C)C)NC(=O)[C@H](CC(=O)O)NC(=O)[C@H](CC2CCOCC2)NC(=O)[C@H](CC2CCN(C(=O)CCOCCOCCOCCOCCNC(=O)CN3CCN(CC(=O)O)CCN(CC(=O)O)CCN(CC(=O)O)CC3)CC2)NC(=O)CNC(=O)[C@H](C(C)(C)C)NC1=O` [compound 384, Ac-hLeu-Y-C-Tbg-G-Pip(PEG4-DOTA)Ala-ThpA-D-V-Y-C-5FW-F-hydroxyVal-dAla-CONH2] (Ac-[hLeu]YC[Tle]G[Ala(piperidin-4-yl)]([PEG4-DOTA])[Ala(4-THP)]DVYC[Trp(5-F)]F[Val(3-OH)][dA]-NH2; disulfide 3-11), the “% net internalization” value with Calu-6 cell line [1] is listed as “A (%≤25)”. The “% cell associated fraction” value with Calu-6 cell line [2] was “B (25<%≤50)”. The Kd on human 4lg B7-H3 (setting [3]) was less than 1 nM.
Consider `CC(=O)N[C@@H](CCC(C)C)C(=O)N[C@@H](Cc1ccc(O)cc1)C(=O)N[C@H]1CSSC[C@@H](C(=O)N[C@@H](Cc2c[nH]c3ccc(F)cc23)C(=O)N[C@@H](Cc2ccccc2)C(=O)N[C@H](C(=O)N[C@H](CCCCNC(=O)CN2CCN(CC(=O)O)CCN(CC(=O)O)CCN(CC(=O)O)CC2)C(=O)O)C(C)(C)O)NC(=O)[C@H](Cc2ccc(O)cc2)NC(=O)[C@H](C(C)C)NC(=O)[C@H](CC(=O)O)NC(=O)[C@H](CC2CCOCC2)NC(=O)[C@H](CCCCN)NC(=O)CN(C)C(=O)[C@H](C(C)(C)C)NC1=O` [compound 348, Ac-hLeu-Y-C-Tbg-Sar-K-ThpA-D-V-Y-C-5FW-F-hydroxyVal-dLys(DOTA)-COOH] (Ac-[hLeu]YC[Tle][Sar]K[Ala(4-THP)]DVYC[Trp(5-F)]F[Val(3-OH)][dK](DOTA)-OH; disulfide 3-11), for which the “% net internalization” value in the assay with Calu-6 cell line [1] is on record as “A (%≤25)”. Also, the “% cell associated fraction” value in the assay on Calu-6 cell line [2] is recorded as “B (25<%≤50)”. At human 4lg B7-H3 (setting [3]), the Kd was less than 1 nM.
As to `CC(=O)N[C@@H](CCC(C)C)C(=O)N[C@@H](Cc1ccc(O)cc1)C(=O)N[C@H]1CSSC[C@@H](C(=O)N[C@@H](Cc2c[nH]c3ccc(F)cc23)C(=O)N[C@@H](Cc2ccccc2)C(=O)N[C@H](C(=O)N[C@H](CCCCNC(=O)CN2CCN(CC(=O)O)CCN(CC(=O)O)CCN(CC(=O)O)CC2)C(N)=O)[C@H](C)O)NC(=O)[C@H](Cc2ccc(O)cc2)NC(=O)[C@H](C(C)C)NC(=O)[C@H](CC(=O)O)NC(=O)[C@H](Cc2ccc(O)cc2)NC(=O)[C@H](CCCCN)NC(=O)CNC(=O)[C@H](C(C)C)NC1=O` [compound 162, Ac-hLeu-Y-C-V-G-K-Y-D-V-Y-C-5FW-F-alloThr-dLys(DOTA)-CONH2] (Ac-[hLeu]YCVGKYDVYC[Trp(5-F)]F[aThr][dK](DOTA)-NH2; disulfide 3-11), the “% net internalization” value in the assay with Calu-6 cell line [1] was “A (%≤25)”. For the same compound, the “% cell associated fraction” value in the assay on Calu-6 cell line [2] is “B (25<%≤50)”. Also, the Kd on human 4lg B7-H3 (setting [4]) was less than 1 nM.
